Literature values in article PMC2074382 (British Journal of Cancer, 1996).
Where a name gives a salt, the structure may show the parent alone.

Tested on: HT-29 and SW-48 colon, PC-3 prostate, MX-1 breast, H460 lung, SKOV3 ovarian and KB epidermoid carcinomas xenografts
Conditions: HT-29, SW-48, PC-3, MX-1, H460, SKOV3, KB; ref Emerson et al., 1993, 1994, 1995; cited from earlier work

CC[C@@]1(O)C(=O)OCc2c1cc1n(c2=O)Cc2c-1nc1cc3c(cc1c2CN1CCN(C)CC1)OCCO3 [GI147211, [7 - (methylpiperazinomethylene) - 10,11 - ethylene-dioxy-20(S)] camptothecin dihydrochloride]
cytotoxicity against xenografts of human cancers: cytotoxicity against several xenografts of human cancers
